Tested on: cut Rose Flowers (Akito and Red One varieties)
Settings: several ppm in acrylic emulsion (tested 0.8 to 11.2 ppm); stored at 2° C. for one month; FIG. 1
Procedure: The flowers were dipped in several emulsions that included several concentration of STS (diluted from 8 g/l by taking from 0.1 to 1.4 ml per liter), ranging from 0.8 to 11.2 ppm. A bunch of roses, flowers and leaves, was dipped in the solution at each concentration for 2 seconds three times. Each treatment included 10 flowers. After the dip process, the flowers were put on a net for 10 minutes, so that an excess solution could drain off. The flowers were kept in an impregnation box at 2° C. for one month, and then they were allocated in vases for quality and shelf life assessments. The quality and appearance of the flowers were checked every day (FIG. 1).

Substance: silver thiosulfate
- quality of the stored roses: improves the quality of the stored roses

From patent US20090092740A1, “METHOD FOR INCREASING LONG-TERM STORAGE OF CUT FLOWERS” (GREENOY LTD., priority 2006, published 2009)
